Results from paper PMC6066535, “Polypharmacology of Berberine Based on Multi-Target Binding Motifs” (Frontiers in Pharmacology, 2018).
pIC50, pKd: −log10 of the molar value.

Key:
BACE1 (beta-secretase 1) [1] = target: T1, BACE1 (beta-secretase 1) (Homo sapiens, UniProt P56817); test: FRET substrate cleavage assay (Sigma kit); assay type: biochemical
T1 construct: commercial BACE1 enzyme (Sigma); amine-coupled on CM5 chip for SPR, free enzyme in FRET assay

BACE1 (beta-secretase 1) [2] = target: T1, BACE1 (beta-secretase 1); test: SPR (Biacore T200, steady-state affinity); assay type: binding
[3] = target: T2, Aβ1-42 (amyloid-β1-42) oligomer (Homo sapiens, UniProt P05067); test: SPR (Biacore T200, steady-state affinity); assay type: binding
T2 construct: gene APP; commercial 42-residue peptide (Sigma), cut from amyloid precursor protein (APP residues 672-713); oligomer, amine-coupled on CM5 chip
T2 sequence (P05067 672-713): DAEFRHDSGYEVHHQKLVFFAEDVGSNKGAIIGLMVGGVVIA

T1 sequence (P56817 46-501): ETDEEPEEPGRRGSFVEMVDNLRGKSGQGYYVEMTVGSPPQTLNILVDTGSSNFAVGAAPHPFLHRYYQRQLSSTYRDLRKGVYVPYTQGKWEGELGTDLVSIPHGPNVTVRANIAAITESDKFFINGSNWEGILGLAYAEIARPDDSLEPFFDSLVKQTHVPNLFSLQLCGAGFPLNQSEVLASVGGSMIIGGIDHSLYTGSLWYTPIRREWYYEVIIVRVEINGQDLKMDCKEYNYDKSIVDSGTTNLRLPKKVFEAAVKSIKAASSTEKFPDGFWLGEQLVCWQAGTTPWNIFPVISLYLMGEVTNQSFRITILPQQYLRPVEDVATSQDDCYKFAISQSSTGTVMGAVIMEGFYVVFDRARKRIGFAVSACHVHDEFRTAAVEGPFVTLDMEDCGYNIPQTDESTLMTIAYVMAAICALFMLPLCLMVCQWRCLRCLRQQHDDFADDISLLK

Question: `COc1ccc2cc3[n+](cc2c1OC)CCc1cc2c(cc1-3)OCO2` [berberine] was tested. Which pIC50 (BACE1 (beta-secretase 1) [1]) did it give?
Answer: 4.20

Question: What about the pKd (BACE1 (beta-secretase 1) [2]) of the same compound?
Answer: 5.90

Question: And the pKd [3]?
Answer: 5.83
